Test results: PubChem BioAssay (NCI)
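Five concentrations, 48 hours, 96-well plates. GI50 is the concentration that inhibits growth by half. TGI: concentration producing complete growth inhibition.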

Key:
Test in all cases: NCI anticancer screen, dose series, 48 h
PC-3 prostate = tested on: PC-3 prostate
SF-268 CNS = tested on: SF-268 CNS
SNB-75 CNS = tested on: SNB-75 CNS
OVCAR-3 ovarian = tested on: OVCAR-3 ovarian
786-0 renal = tested on: 786-0 renal
SF-539 CNS = tested on: SF-539 CNS
UACC-62 melanoma = tested on: UACC-62 melanoma
A549 NSCLC = tested on: A549 NSCLC
HOP-92 NSCLC = tested on: HOP-92 NSCLC
TK-10 renal = tested on: TK-10 renal

Row | SMILES | GI50 (PC-3 prostate) | TGI (PC-3 prostate) | GI50 (SF-268 CNS) | TGI (SF-268 CNS) | GI50 (SNB-75 CNS) | TGI (SNB-75 CNS) | GI50 (OVCAR-3 ovarian) | TGI (OVCAR-3 ovarian) | GI50 (786-0 renal) | TGI (786-0 renal) | GI50 (SF-539 CNS) | TGI (SF-539 CNS) | GI50 (UACC-62 melanoma) | TGI (UACC-62 melanoma) | GI50 (A549 NSCLC) | TGI (A549 NSCLC) | GI50 (HOP-92 NSCLC) | TGI (HOP-92 NSCLC) | GI50 (TK-10 renal) | TGI (TK-10 renal)
1 | CNC(=O)c1ccc(-c2cnc3ncc(Cc4ccc5ncccc5c4)n3n2)cc1F | > 100 µM | > 100 µM | 83 µM | > 100 µM | 12.7 µM | 54.8 µM | > 100 µM | > 100 µM | 64.3 µM | > 100 µM | 54.1 µM | > 100 µM | > 100 µM | > 100 µM | > 100 µM | > 100 µM | 8.54 µM | 91.5 µM | > 100 µM | > 100 µM
2 | CS(=O)(=O)Nc1ccc(-c2ccc3c(NC(=O)C4CC4)n[nH]c3c2)cc1 | > 25 µM | > 25 µM | > 25 µM | > 25 µM | > 25 µM | > 25 µM | > 21.2 µM | > 25 µM | > 25 µM | > 25 µM | > 20 µM | > 25 µM | 22.7 µM | > 25 µM | > 25 µM | > 25 µM | > 25 µM | > 25 µM | > 25 µM | > 25 µM
3 | CNc1nc(NC2CCCC2)nc(Sc2ccc(OC)cc2)n1 | > 10 µM | > 10 µM | > 10 µM | > 10 µM | > 10 µM | > 10 µM | > 10 µM | > 10 µM | > 10 µM | > 10 µM | > 10 µM | > 10 µM | > 10 µM | > 10 µM | > 10 µM | > 10 µM | 1.09 µM | 9.5 µM | > 10 µM | > 10 µM
4 | COC(=O)c1c(O)ccc2[nH]c(C)c(C#N)c12 | 38.7 µM | > 100 µM | 40 µM | > 100 µM | 87.9 µM | > 100 µM | 31.4 µM | > 100 µM | 31.6 µM | > 100 µM | – | – | 25.7 µM | 90.4 µM | 41.1 µM | > 100 µM | 30.3 µM | 91.9 µM | 8.8 µM | 49.2 µM
5 | C=CC(=O)N1CCN(c2ncnc3c(F)c(-c4c(O)cccc4F)c(Cl)cc23)CC1 | 7.29 µM | 30.3 µM | 11.5 µM | 37.2 µM | 7.54 µM | 22.6 µM | 9.02 µM | 23.5 µM | 11.4 µM | 25.4 µM | 7.48 µM | 20.5 µM | 9.36 µM | 22.1 µM | 18 µM | 40.7 µM | 12.8 µM | 33.6 µM | 16.1 µM | 43.4 µM
6 | COc1ccc2c(-c3cc4ccccc4o3)cc(=O)oc2c1 | – | > 100 µM | – | > 94 µM | – | 47.6 µM | – | 30.4 µM | – | 78.6 µM | – | 49.6 µM | – | > 100 µM | – | > 100 µM | – | 75.3 µM | – | 50.8 µM
7 | O=C(Nc1cc(-c2ccccc2)[nH]n1)c1ccc(Cl)cc1 | 37.4 µM | > 100 µM | 28.6 µM | > 100 µM | 17.7 µM | 90.3 µM | > 100 µM | > 100 µM | 72.4 µM | > 100 µM | 17.9 µM | > 100 µM | > 100 µM | > 100 µM | 30.4 µM | > 100 µM | 37.1 µM | > 100 µM | 9.22 µM | > 100 µM
8 | NCCN1CCN(c2nccc(-c3ccc4ccccc4c3)n2)CC1 | 1.86 µM | 4.36 µM | 1.75 µM | 3.49 µM | 1.41 µM | 2.9 µM | 2.36 µM | 5.45 µM | 1.69 µM | 3.17 µM | 1.79 µM | 3.28 µM | 1.87 µM | 3.65 µM | 1.86 µM | 3.43 µM | 1.61 µM | 4.01 µM | 1.78 µM | 3.27 µM
9 | CCCCCC(=O)Oc1ccc(/C(=C(\C)c2ccc(OC)cc2)c2ccc(OCCN3CCCCC3)cc2)cc1 | 5.65 µM | 18.7 µM | 11.6 µM | 26.9 µM | 10.2 µM | 26.3 µM | 11.6 µM | 25.2 µM | 1.98 µM | 5.61 µM | 3.56 µM | 14 µM | 7.19 µM | 20 µM | 10.1 µM | 22.4 µM | 3.83 µM | 17 µM | 17.5 µM | 31.8 µM
10 | Cc1c(-c2nc(N)nc(C3CC3)c2C)nc(N)nc1C1CC1 | – | > 100 µM | – | > 100 µM | – | > 100 µM | – | > 100 µM | – | > 100 µM | – | > 100 µM | – | > 100 µM | – | > 100 µM | – | > 100 µM | – | > 100 µM
11 | CCN(CCO)CCNc1ccc(C)c2sc3cc(Cl)ccc3c(=O)c12 | 1.34 µM | 2.94 µM | 1.44 µM | 3.04 µM | 1.97 µM | 5.44 µM | 1.72 µM | 4.13 µM | 1.41 µM | 2.84 µM | 1.73 µM | 3.43 µM | 1.73 µM | 3.31 µM | 1.73 µM | 3.28 µM | 1.56 µM | 8.94 µM | 1.8 µM | 3.31 µM
12 | CCCS(=O)(=O)c1nc(NC2CC2)cc(-c2ccc3c(ccn3C3CC(C)(C)NC(C)(C)C3)c2)n1 | 1.78 µM | 3.47 µM | 1.88 µM | 3.89 µM | 1.45 µM | 2.86 µM | 1.84 µM | 3.42 µM | 1.21 µM | 2.64 µM | – | – | – | – | – | – | 1.46 µM | 3.08 µM | 1.52 µM | 2.98 µM
13 | COc1cc(-c2cn(C)c(=O)c(C)c2C)cc(OC)c1CN1CC[C@H](N2CCN(c3ccc(N[C@H]4CCC(=O)NC4=O)cc3F)CC2)C(F)(F)C1 | 11 µM | 47.1 µM | 16.5 µM | 40.2 µM | 5.2 µM | 21.9 µM | 13.4 µM | 27.2 µM | 12.8 µM | 36.6 µM | 14.4 µM | 28.6 µM | – | – | 12.3 µM | 31.1 µM | 8.81 µM | 24.8 µM | 12 µM | 28.8 µM
14 | Oc1c(Br)cc(CN(Cc2cc(Br)c(O)c(Br)c2)C2CCCCC2)cc1Br | – | > 100 µM | – | > 100 µM | – | > 100 µM | – | > 100 µM | – | > 100 µM | – | – | – | > 100 µM | – | > 100 µM | – | > 100 µM | – | > 100 µM
